We go through four compounds from PMC9822352, “Design, Synthesis and Evaluation of New Multifunctional Benzothiazoles as Photoprotective, Antioxidant and Antiproliferative Agents” (Molecules, 2022).

The subject of data set [1] is HaCat keratinocytes. In words: Cell growth inhibition assay, HaCat. In kind it is cell-based, human. As to conditions: Homo sapiens, HaCaT; 24 h incubation, cell count. On the procedure: (§1) All synthesized compounds were tested in order to evaluate their in vitro antiproliferative activity. The human melanoma Colo-38 cell line was selected as a tumor skin model, while the immortalized human HaCaT keratinocytes were chosen as a control for the evaluation of the cytotoxicity towards non-cancerous cells and of the selectivity towards tumor cell lines. […] The selectivity index (SI) was also calculated and is the ratio between the IC50 of a given compound towards the non-cancerous cell line and the IC50 of the same compound towards the tumor cell line.
(§2) Cell growth inhibition assays were carried out using human melanoma Colo-38 cells and skin HaCat keratinocytes cells. Human melanoma Colo-38 cells were kindly provided by Dr. Patrizio Giacomini (Laboratory of Immunology, Regina Elena Institute, Rome, Italy). HaCat cells were kindly provided by Istituto Zooprofilattico Sperimentale della Lombardia e dell’Emilia Romagna, Brescia, Italy. Cell lines were seeded using concentrations of 40,000 cells/mL and 25,000 cells/mL, respectively. Colo-38 cells were maintained in RPMI 1640, supplemented with 10% fetal bovine serum (FBS), penicillin (100 Units mL^−1), and streptomycin (100 µg mL^−1). HaCat cells were maintained in DMEM, supplemented with 10% fetal bovine serum (FBS), penicillin (100 Units mL^−1), streptomycin (100 µg mL^−1) and glutamine (2 mM); the incubation was performed at 37 °C in a 5% CO2 atmosphere. Tested compounds were dissolved in MeOH/DMSO (1:1) to obtain 50 mM stock solutions and diluted before cell treatment in MeOH 100%. The tested compounds were added at serial dilutions to the cell cultures (from 0.1 to 100 µM) and incubated for 24 h further. Cells were then harvested, suspended in physiological solution, and counted with a Z2 Coulter Counter (Coulter Electronics, Hialeah, FL, USA). The cell number/mL and the IC50 values were determined when untreated cells were in the log phase of cell growth. Cells treated with vehicles and untreated cells were placed in each plate.

Data set [2] deals with melanoma Colo-38 cells. In words: Cell growth inhibition assay, Colo-38. The format is cell-based, human. As to conditions: for IC50: Homo sapiens, 24 h incubation, cell count; for SI Colo-38 (selectivity index): IC50 HaCat / IC50 Colo-38. On the procedure: as §1, §2
Data set [3] can be described thus: In vitro filtering parameters of O/W sunscreen formulation containing 3% compound (modified Diffey-Robson, PMMA plates). As to conditions: 3% in formulation, before irradiation. An excerpt: All synthesized compounds were formulated at 3% and their photoprotective efficacy, determined by spectrophotometric measurements using the modified Diffey-Robson method, was compared with that of the lead compound PBSA (used at 3% in the same formulation) and using the base without active as a control (Table 2).
The synthesized compounds were incorporated at a concentration of 3% in a typical oil-in-water sunscreen formulation, to evaluate the filtering parameters, and have the following ingredient composition:
INCI (International Nomenclature Cosmetic Ingredients): aqua, glycerin, Euxyl PE 9010, xanthan gum, Tribehenin PEG-20 Esters, cetearyl alcohol, dicaprylyl carbonate, PPG-26-Buteth-26 (and) PEG-40 Hydrogenated Castor Oil (and) water, C12-C15 Alkyl Benzoate, and Sodium hydroxide (sol. 10%).
As previously reported the protocol indicates to spread 32.5 mg of each formulation on 25 cm^2 PMMA plates with the fingers. Each formulation was tested in triplicate, and five measurements were recorded for each dish, following a 15–30 min incubation in the dark at room temperature. UV transmittance data was recorded using a UV-VIS spectrophotometer in the range 290–400 nm. The blank plate, SPF, UVA-PF and critical wavelength were obtained by SPF Calculator software (version 2.1), Shimadzu, Milan, Italy).

Data set [4] in a line: Photostability study of 3% formulation (post-irradiation filtering parameters). As to conditions: 3% in formulation; for % SPFeff (residual percentage of SPF in vitro): SPF after/before irradiation × 100; for % UVA-PFeff (residual percentage of UVA-PF): UVA-PF after/before irradiation × 100; for SPF / UVA/UVB / UVAPF / λc: post irradiation. From the text:
To outline the efficacy and safety profile of a sunscreen formulation, it is essential to provide data relating to photostability. It is possible to provide photodegradation data by recording, pre- and post-irradiation, the transmittance of PMMA plates with finger-coat formulations subjected to a dose of UVA capable of causing erythema, according to the criteria of Garoli et al.. By means of Equations (2) and (3) it was possible to evaluate the residual percentage of SPF in vitro and of UVA-PF for all the prepared formulations. Of greatest interest are the values obtained for the derivatives BZTcin2 and BZTcin4.
To determine the photostability, the previously reported method was adopted, which consists in preparing each plate as mentioned above and subjecting it to solar irradiation quantified as the minimum dose of UVA equivalent to an effective radiant exposure of erythema. The protocol stipulates that, before and after exposure to sunlight, the transmission of the sun protection layer in the range of 290–400 nm is recorded.
Using Equations (2) and (3) below, the residual percentage of SPF in vitro (% SPFeff.) and UVA-PF (% UVA-PFeff.) have been obtained, which, if greater than or equal to 80, can classify a filter as photostable. %SPFeff. = in vitro SPFafter/in vitro SPFbefore × 100(2) %UVA − PFeff. = UVA − PFafter/UVA − PFbefore × 100(3)

The test system of data set [5] is Colo-38 cell line. Description: Pro-apoptotic activity (Annexin V method), Colo-38. As to conditions: for Dead (%) / Early Apoptosis (%) / Late Apoptosis (%): 24 h; for total apoptosis: Colo-38, 24 h, concentrations approaching IC50. In kind it is cell-based, human. On the procedure:
The Annexin V assay was conducted at two concentrations approaching IC50 values toward the selected cell lines reported in Table 3. The complete set of data is reported in Table 4, while representative data from the analysis of the corresponding Muse Analyzer plots are shown in Figure 2.
Apoptosis assays were performed with a Muse® Cell Analyzer instrument (Merck Millipore, Burlington, MA, USA) and the kit on Colo-38 and HaCat cell lines according to the manufacturer’s protocol. Cells were treated and exposed to the compounds for 24 h. This procedure is based on the detection of PS (PhosphatidylSerine) exposed on the external membrane of apoptotic cells by Annexin V. Four populations of cells can be distinguished using this assay: live, early apoptotic, late apoptotic and dead cells. The MUSE cell analyzer can discriminate “early” from “late” apoptosis since “early apoptotic cells” are Annexin V-positive and 7-AAD-negative, while “late apoptotic cells” are positive to both Annexin V and 7-AAD (7-aminoactinomycin D). The DNA intercalating molecule 7AAD (7-aminoactinomycin D) is used as an indicator of cell membrane integrity, since it binds DNA only in cells undergoing late apoptosis/death stage, when the membrane integrity is lost. Muse Annexin V and Dead Cell reagent were used to dilute the cells (1:1). After 20 min of incubation between cell samples and the kit at room temperature in the dark, the samples were analyzed using 0.01% Triton X-100 as positive control. The data were acquired and recorded using the Annexin V and Dead Cell software module (Millipore, Billerica, MA, USA).

In data set [1], `O=C(/C=C/c1ccc(O)cc1)Nc1nc2ccccc2s1` [BZTcin2, (E)-N-(benzo[d]thiazol-2-yl)-3-(4-hydroxyphenyl)acrylamide] came in with an IC50 greater than 100 µM. 35.2 ± 5.52 µM corresponded to half-maximal inhibition in data set [2] (IC50). Also, in data set [3], the SPF is 12.26, the UVA/UVB was determined as 1.49, the UVAPF0 is on record as 11.79 and the λc is 380 nm. Also, in data set [4], the “% SPFeff (residual percentage of SPF in vitro)” value is 96.00%, the “% UVA-PFeff (residual percentage of UVA-PF)” value is recorded as 85.50%, the SPF is listed as 11.77 and the UVA/UVB worked out at 1.49. In data set [4], this compound showed a UVAPF of 10.08 and a λc of 377 nm. Also, in data set [5] (Colo-38, 5 µM), the “Dead (%)” value turned out to be 2.05%, the “Early Apoptosis (%)” value was found to be 1.70% and the “Late Apoptosis (%)” value is listed as 16.90%. Besides, in data set [5] (Colo-38, 50 µM), the “Dead (%)” value was 4.45% and the “Early Apoptosis (%)” value came to 1.85%. Moreover, the total apoptosis result in data set [5] was “over 30%”.

The compound `O=C(/C=C/c1ccc(O)c(O)c1)Nc1nc2ccccc2s1` [BZTcin4, (E)-N-(benzo[d]thiazol-2-yl)-3-(3,4-dihydroxyphenyl)acrylamide] came in with an IC50 in data set [1] of 38.1 ± 5.13 µM. Further, in data set [2], the IC50 stood at 8.31 ± 0.76 µM and the “SI Colo-38 (selectivity index)” value is reported as 4.59. In data set [3], this compound gave an SPF of 9.70, a UVA/UVB of 1.39, a UVAPF0 of 11.40 and a λc of 380 nm. In data set [4], the “% SPFeff (residual percentage of SPF in vitro)” value was 86.91%, the “% UVA-PFeff (residual percentage of UVA-PF)” value amounted to 93.25%, the SPF is 8.43 and the UVA/UVB is listed as 1.39. In data set [4], this compound returned a UVAPF of 10.63 and a λc of 380 nm. Besides, in data set [5] (Colo-38, 5 µM), the “Dead (%)” value was determined as 1.00%, the “Early Apoptosis (%)” value amounted to 3.85% and the “Late Apoptosis (%)” value was 8.50%. In addition, in data set [5] (Colo-38, 10 µM), the “Dead (%)” value amounted to 1.35%, the “Early Apoptosis (%)” value worked out at 3.20% and the “Late Apoptosis (%)” value is 8.00%. For the same compound, the total apoptosis result in data set [5] is listed as “does not induce apoptosis at any of the concentrations tested”.

`COc1ccc(/C=C/C(=O)Nc2nc3ccccc3s2)cc1O` [BZTcin5, (E)-N-(benzo[d]thiazol-2-yl)-3-(3-hydroxy-4-methoxyphenyl)acrylamide]: the midpoint of inhibition in data set [1], the IC50, lay at 83.3 ± 5.79 µM. Also, in data set [2], half-maximal inhibition (IC50) required 10 ± 6.12 µM and the “SI Colo-38 (selectivity index)” value is on record as 8.33. In data set [3], this compound returned an SPF of 3.84, a UVA/UVB of 1.11, a UVAPF0 of 3.61 and a λc of 378 nm. Further, in data set [4], the SPF is 3.51, the UVA/UVB came out at 1.11, the UVAPF turned out to be 3.32 and the λc was found to be 377 nm. Further, in data set [5] (Colo-38, 10 µM), the “Dead (%)” value is reported as 3.75%, the “Early Apoptosis (%)” value is 1.80% and the “Late Apoptosis (%)” value was determined as 21.40%. Also, in data set [5] (Colo-38, 50 µM), the “Dead (%)” value came to 3.50%, the “Early Apoptosis (%)” value worked out at 1.40% and the “Late Apoptosis (%)” value worked out at 16.25%. The compound also yielded a total apoptosis in data set [5] greater than 20%.

`O=C(N/N=C/c1ccc(O)cc1)c1nc2ccccc2s1` [BZTidr2, (E)-N′-(4-hydroxybenzylidene)benzo[d]thiazole-2-carbohydrazide]: the IC50 in data set [1] was greater than 100 µM. Besides, the IC50 in data set [2] turned out to be 92.6 ± 1.68 µM. In data set [3], this compound registered an SPF of 1.85, a UVA/UVB of 1.09, a UVAPF0 of 1.96 and a λc of 386 nm. Moreover, in data set [4], the SPF was determined as 1.85, the UVA/UVB came out at 1.09, the UVAPF is given as 1.96 and the λc was found to be 386 nm.
